The structures appear in SMILES notation. Like-named read-outs stand apart in the source and are kept apart here.

For series [1] the following is noted: cited from earlier work.
Series [2] relates to popliteal and/or inguinal lymph node.
[3] abbreviates: macroscopic guidance of diagnostic procedures.

For `CC1(C)C(/C=C/C=C/C=C/C=C2\N(CCCCS(=O)(=O)O)c3ccc4ccccc4c3C2(C)C)=[N+](CCCCS(=O)(=O)[O-])c2ccc3ccccc3c21` [ICG, Indocyanine green], in series [1] (setting [3]), the “side effects for the patients” value was “very limited side effects”.
With `CN(C)c1ccc2nc3ccc(=[N+](C)C)cc-3sc2c1` [MB, Methylene blue], the “time to macroscopically visible diffusion of dye to the lymph node” value (“time” for short) in series [2] (male, Wistar, rat, in vivo) is recorded as 5 min. Also, in series [1] (setting [3]), the “side effects for the patients” value was “very limited side effects”.
Consider `CCN(CC)c1ccc(C(=C2C=CC(=[N+](CC)CC)C=C2)c2cc(O)c(S(=O)(=O)[O-])cc2S(=O)(=O)[O-])cc1.[Na+]` [PB, sodium patent blue V], for which the “time” value in series [2] (rat, in vivo) came to 5 min. Also, the “side effects for the patients” value in series [1] (human, in vivo) is “very limited side effects”.
Consider `Cc1cc2nc3ccc(N(C)C)cc3[s+]c2cc1N.[Cl-]` [TB, Toluidine Blue], for which the “time” value in series [2] (sub-cutaneous injection, 100 μL into footpad) came out at 5 min. Besides, in series [1] (setting [3]), the “side effects for the patients” value is on record as “very limited side effects”.
Regarding `Cc1cc(O)c2c(=O)c3c(O)cc(O)c4c5c(O)cc(O)c6c(=O)c7c(O)cc(C)c8c1c2c(c34)c(c78)c65` [hypericin, Hypericin], in series [1] (setting [3]), the “side effects for the patients” value is reported as “very limited side effects”.
